Results taken from ChEMBL document CHEMBL2176959, “Design and synthesis of potent, orally efficacious hydroxyethylamine derived β-site amyloid precursor protein cleaving enzyme (BACE1) inhibitors” (J Med Chem, 2012).

Columns and labels:
[1] = Tmax in Sprague-Dawley rat at 10 mg/kg, po; format: ADME, organism-based; parameters: dose 10 mg/kg, route oral; details: in vivo
[2] = Drug uptake in Sprague-Dawley rat CSF at 30 mg/kg, po at 4 hrs; format: ADME, organism-based; parameters: dose 30 mg/kg, route oral; details: cerebrospinal fluid, read-out: Drug uptake
[3] = Oral bioavailability in Sprague-Dawley rat at 10 mg/kg; format: ADME, organism-based; details: in vivo
[4] = Plasma concentration in Sprague-Dawley rat at 30 mg/kg, po at 4 hrs; format: ADME, organism-based; parameters: dose 30 mg/kg, route oral
[5] = AUC (0 to infinity) in Sprague-Dawley rat at 10 mg/kg, po; format: ADME, organism-based; parameters: time infinity, dose 10 mg/kg, route oral; details: plasma
[6] = Volume of distribution at steady state in Sprague-Dawley rat at 2 mg/kg, iv; format: ADME, organism-based; parameters: dose 2 mg/kg, route intravenous; details: in vivo, read-out: Vdss
[7] = Cmax in Sprague-Dawley rat at 10 mg/kg, po; format: ADME, organism-based; parameters: dose 10 mg/kg, route oral; details: in vivo
in vitro = details: pig, LLC-PK1

SMILES | Tmax [1] | concentration at 4 h [2] | bioavailability [3] | concentration at 4 h [4] | AUC(0-inf) [5] | Vd [6] | Cmax [7] | Papp at 2 h (in vitro)
COCC(=O)N[C@@H](Cc1cccc(-c2ccncc2)c1)[C@H](O)CN[C@H]1CC2(CCC2)Oc2ncc(CC(C)(C)C)cc21 | – | – | – | – | – | – | – | 22 ×10⁻⁶ cm/s
COCC(=O)N[C@@H](Cc1ccc(F)c(-c2nccs2)c1)[C@H](O)CN[C@H]1CC2(CCC2)Oc2ncc(CC(C)(C)C)cc21 | – | – | – | – | – | – | – | 28 ×10⁻⁶ cm/s
COCC(=O)N[C@@H](Cc1cc(-c2nccs2)ccc1F)[C@H](O)CN[C@H]1CC2(CCC2)Oc2ncc(CC(C)(C)C)cc21 | – | – | – | – | – | – | – | 11 ×10⁻⁶ cm/s

Other lines, results leading:

Tmax [1] | concentration at 4 h [2] | bioavailability [3] | concentration at 4 h [4] | AUC(0-inf) [5] | Vd [6] | Cmax [7] | Papp at 2 h (in vitro) | SMILES
3.33 h | 52 nM | 120% | 3270 nM | 9030 ng·h/mL | 2.19 L/kg | 1890 ng/mL | – | COCC(=O)N[C@@H](Cc1cccc(-c2nccs2)c1)[C@H](O)CN[C@H]1CC2(CCC2)Oc2ncc(CC(C)(C)C)cc21
5.33 h | 78 nM | 100% | 3540 nM | 24200 ng·h/mL | 1.54 L/kg | 4860 ng/mL | – | C#Cc1cccc(C[C@H](NC(=O)COC)[C@H](O)CN[C@H]2CC3(CCC3)Oc3ncc(CC(C)(C)C)cc32)c1
